Laboratory results from patent US4343949A, “Novel 2-substituted-3,4-epoxycyclopentan-1-ones, 2-substituted-3,4-epoxycyclopentan-1-ols, and various 2-substituted-cyclopentenones” (American Cyanamid Company, priority 1979, dated 1982).

What was measured:
[1] = test system: ulcerogenic properties of indomethacin; test: protection against the ulcerogenic properties of indomethacin (stomach ulcer score); format: in vivo, Rats; conditions: indomethacin 20 mg./kg. s.c., 2.5 or lower = active
Method: The compounds of this invention provide protection against the ulcerogenic properties of indomethacin. This assay was carried out in the following manner.
Rats were starved for 48 hours (water was given ad libitum). Indomethacin (20 mg./kg. of body weight) was administered by the subutaneous route and one-half the dose of the test compound was administered by gavage at the same time. After three hours, the second half of the test compound was administered also by Gavage. Five hours after the administration of indomethacin the animals were decapitated and the stomachs removed. The stomachs were washed with distilled water, blotted on gauze, cut along the larger curvature, and the contents rinsed with distilled water. The stomachs were spread out, pinned on a cork and visualized under magnifying glass for ulcers. The criteria for scoring of ulcers was as previously reported. [Abdel-Galil et al. Brit. J. Pharmac. Chemotherapy 33:1-14 (1968)]. […]
______________________________________
Petechial hemorrhage or pin point ulcer
Many ulcers, a few large
Many ulcers, mainly large
Control animals treated with indomethacin but not test compound consistently give scores of about 3.0-3.5. Control animals treated with neither indomethacin nor test compound give scores of about 0.5-0.8. Compounds producing a score of 2.5 or lower are considered to be active.

[2] = test system: bronchospasms elicited by acetylcholine; test: bronchodilator activity (Konzett assay) against acetylcholine bronchospasm; format: in vivo, guinea pigs; conditions: Cavia porcellus; spasmogenic agent acetylcholine (head prints choline); three logarithmic cumulative intravenous doses
Method: (§1) Bronchodilator activity was determined in guinea pigs against bronchospasms elicited by intravenous injections of 5-hydroxytryptamine, histamine or acetylcholine by the Konzett procedure. (See J. Lulling, P. Lievens, F. El Sayed and J. Prignot, Arzeimittel-Porschung, 18 995 (1968).]
(§2) In the Table which follows bronchodilator activity for representative compounds of this invention against one or more of the three spasmogenic agents is expressed as an ED50 determined from the results obtained with three logarithemic cumulative intravenous doses.

[3] = test system: bronchospasms elicited by 5-hydroxytryptamine; test: bronchodilator activity (Konzett assay) against 5-hydroxytryptamine bronchospasm; format: in vivo, guinea pigs; conditions: Cavia porcellus; spasmogenic agent 5-hydroxytryptamine; three logarithmic cumulative intravenous doses
Method: as §1, §2

[4] = test system: bronchospasms elicited by histamine; test: bronchodilator activity (Konzett assay) against histamine bronchospasm; format: in vivo, guinea pigs; conditions: Cavia porcellus; spasmogenic agent histamine; three logarithmic cumulative intravenous doses
Method: as §1, §2

[5] = total oral dose 25 mg./kg. of body weight, control score 3.2

| SMILES | ED50 [2] | ED50 [3] | Score, Treated (stomach ulcer score) [1, 5] | further results |
| --- | --- | --- | --- | --- |
| CCCCCC(O)/C=C/C1CCC(=O)C1(C)CCCCCCC(=O)O (stereo not drawn) [9-oxo-8β-methyl-15-hydroxy-13-trans-prostenoic acid] |  |  |  | Score, Treated (stomach ulcer score) ([1]; total oral dose 12.5 mg./kg. of body weight, control score 3.0): 2.0 |
| CCCCCC(O)/C=C\C1CCC(=O)C1CCCCCCC(=O)O (stereo not drawn) [9-oxo-15-hydroxy-13-cis-prostenoic acid] | 0.32 µg/kg | 0.106 µg/kg |  |  |
| CCCCCC(O)/C=C/C1CCC(=O)C1CCCCCC(CC)C(=O)O (stereo not drawn) [9-oxo-15-hydroxy-2-ethyl-13-trans-prostenoic acid] | 0.533 µg/kg | 0.329 µg/kg |  | ED50 [4]: 0.145 µg/kg |
| CCCCCC(O)/C=C/C1CCC(=O)C1CCCCSCC(=O)O (stereo not drawn) [9-oxo-3-thia-15-hydroxy-13-trans-prostenoic acid] |  |  | 1.8 |  |
| CCCCCC(O)/C=C/C1CCC(=O)C1CCCCSCC(=O)O (stereo not drawn) [9-oxo-3-thia-15-epi-hydroxy-13-trans-prostenoic acid] |  |  | 2.3 |  |
